Laboratory results published in patent publication US11180504B2 (ORCHID PHARMA LTD., priority 2016, dated 2021).
≈ marks a conversion by molar mass, not a printed value.

What was measured:
[1] = system: carbapenem sensitive Pseudomonas aeruginosa; experiment: MIC by broth micro-dilution (CLSI), carbapenem sensitive P. aeruginosa; assay type: cell-based; details: Pseudomonas aeruginosa, ATCC27853, Meropenem susceptible P. aeruginosa ATCC27853; read-out: MIC
[2] = system: carbapenem sensitive Escherichia coli; experiment: MIC by broth micro-dilution (CLSI), carbapenem sensitive E. coli; assay type: cell-based; details: Escherichia coli, ATCC25922, ESBL −ve E. coli ATCC25922; read-out: MIC
[3] = system: carbapenemase producing K. pneumoniae; experiment: MIC by broth micro-dilution (CLSI), carbapenemase producing K. pneumoniae; assay type: cell-based, Klebsiella pneumoniae; details: Klebsiella pneumoniae, ATCCBAA1705, KPC-2 K. pneumoniae ATCC BAA-1705; read-out: MIC
[4] = system: methicillin-sensitive Staphylococcus aureus; experiment: MIC by broth micro-dilution (CLSI), methicillin-sensitive S. aureus; assay type: cell-based; details: Staphylococcus aureus, ATCC 29213 / MSSA, MSSA S. aureus ATCC29213; read-out: MIC

Row | Compound | MIC [1] [µg/mL] | MIC [2] [µg/mL] | MIC [3] [µg/mL] | MIC [4] [µg/mL]
1 | CNCC(=O)N[C@H](C)[C@H]1C(=O)N2C(C(=O)O)=C(SC3CN(C4=NCCS4)C3)[C@H](C)[C@H]12 [Example 256] | 32 (≈ 70.5 µM) | 1 (≈ 2.2 µM) | 2 (≈ 4.41 µM) | 4 (≈ 8.82 µM)
2 | CNCC(=O)N[C@H](C)[C@H]1C(=O)N2C(C(=O)O)=C(SCCn3cc(O)c(=O)cc3CN)[C@H](C)[C@H]12 [Example 257] | 128 (≈ 267 µM) | 4 (≈ 8.34 µM) | 16 (≈ 33.4 µM) | > 128
3 | C[C@@H](NC(=O)C(F)F)[C@H]1C(=O)N2C(C(=O)O)=C(S[C@@H]3CN[C@H](CNC(=O)[C@H]4CC[C@@H](N)C4)C3)[C@H](C)[C@H]12 [Example 258] | 128 (≈ 242 µM) | 4 (≈ 7.55 µM) | 16 (≈ 30.2 µM) | 1 (≈ 1.89 µM)
4 | C[C@@H](NC(=O)C(F)F)[C@H]1C(=O)N2C(C(=O)O)=C(S[C@@H]3CN[C@H](CNC(=O)[C@@H]4C[C@H](N)CN4)C3)[C@H](C)[C@H]12 [Example 259] | > 128 | 4 (≈ 7.54 µM) | 16 (≈ 30.2 µM) | 2 (≈ 3.77 µM)
5 | C[C@@H](NC(=O)C(F)F)[C@H]1C(=O)N2C(C(=O)O)=C(S[C@@H]3CN[C@H](CNC(=O)[C@@H]4CC[C@H](N)C4)C3)[C@H](C)[C@H]12 [Example 260] | 32 (≈ 60.4 µM) | 4 (≈ 7.55 µM) | 8 (≈ 15.1 µM) | 1 (≈ 1.89 µM)
6 | C[C@@H](NC(=O)C(F)F)[C@H]1C(=O)N2C(C(=O)O)=C(S[C@@H]3CN[C@H](CNC(=O)[C@@H]4C[C@@H](N)CN4)C3)[C@H](C)[C@H]12 [Example 261] | 64 (≈ 121 µM) | 2 (≈ 3.77 µM) | 16 (≈ 30.2 µM) | 2 (≈ 3.77 µM)
7 | CNCC(=O)N[C@H](C)[C@H]1C(=O)N2C(C(=O)O)=C(S[C@@H]3CN[C@H](CNC(=O)[C@@H]4CCC(N)C4)C3)[C@H](C)[C@H]12 (some centres unmarked) [Example 262] | 64 (≈ 122 µM) | 4 (≈ 7.65 µM) | 16 (≈ 30.6 µM) | 32 (≈ 61.2 µM)
8 | C[C@@H](NC(=O)C(F)F)[C@H]1C(=O)N2C(C(=O)O)=C(SC3CN(C4=NCCS4)C3)[C@H](C)[C@H]12 [Example 263] | 128 (≈ 278 µM) | 0.25 (≈ 0.543 µM) | 2 (≈ 4.34 µM) | 0.25 (≈ 0.543 µM)
9 | CNCC(=O)N[C@H](C)[C@H]1C(=O)N2C(C(=O)O)=C(S[C@@H]3CN[C@H](C(=O)N4CC[C@H](N)C[C@@H]4C)C3)[C@H](C)[C@H]12 [Example 264] | 8 (≈ 15.3 µM) | 2 (≈ 3.83 µM) | 4 (≈ 7.65 µM) | 16 (≈ 30.6 µM)

The next lines start with the values.

Row | MIC [1] [µg/mL] | MIC [2] [µg/mL] | MIC [3] [µg/mL] | MIC [4] [µg/mL] | Compound
10 | > 128 | 2 (≈ 4.34 µM) | 8 (≈ 17.4 µM) | 2 (≈ 4.34 µM) | CC(=O)N1C[C@@H](N)C[C@H]1CSC1=C(C(=O)O)N2C(=O)[C@H]([C@@H](C)NC(=O)C(F)F)[C@H]2[C@H]1C [Example 265]
11 | 128 (≈ 259 µM) | 2 (≈ 4.05 µM) | 8 (≈ 16.2 µM) | 64 (≈ 130 µM) | C[C@@H](NC(=O)[C@H]1CC[C@@H](N)C1)[C@H]1C(=O)N2C(C(=O)O)=C(S[C@@H]3CN[C@H](C(=O)N(C)C)C3)[C@H](C)[C@H]12 [Example 266]
12 | > 128 | 1 (≈ 2.01 µM) | 2 (≈ 4.02 µM) | 0.5 (≈ 1 µM) | C[C@@H](NC(=O)C(F)F)[C@H]1C(=O)N2C(C(=O)O)=C(SC[C@@H]3C[C@H](NS(N)(=O)=O)CN3)[C@H](C)[C@H]12 [Example 267]
13 | 32 (≈ 68.4 µM) | 2 (≈ 4.28 µM) | 4 (≈ 8.56 µM) | 8 (≈ 17.1 µM) | C[C@@H](NC(=O)CC(N)=O)[C@H]1C(=O)N2C(C(=O)O)=C(S[C@@H]3CN[C@H](C(=O)N(C)C)C3)[C@H](C)[C@H]12 [Example 268]
14 | 128 (≈ 261 µM) | 4 (≈ 8.15 µM) | 4 (≈ 8.15 µM) | 16 (≈ 32.6 µM) | CNCC(=O)N[C@H](C)[C@H]1C(=O)N2C(C(=O)O)=C(SC[C@@H]3C[C@H](NS(N)(=O)=O)CN3)[C@H](C)[C@H]12 [Example 269]
15 | 64 (≈ 129 µM) | 1 (≈ 2.01 µM) | 4 (≈ 8.04 µM) | 4 (≈ 8.04 µM) | C[C@@H](NC(=O)[C@@H]1CSCN1)[C@H]1C(=O)N2C(C(=O)O)=C(S[C@@H]3CN[C@H](C(=O)N(C)C)C3)[C@H](C)[C@H]12 [Example 270]
16 | 8 (≈ 14.9 µM) | 1 (≈ 1.86 µM) | 4 (≈ 7.43 µM) | 2 (≈ 3.71 µM) | C[C@@H](NC(=O)[C@@H]1CSCN1)[C@H]1C(=O)N2C(C(=O)O)=C(S[C@@H]3CN[C@H](C(=O)N4CC[C@@H](N)C4)C3)[C@H](C)[C@H]12 [Example 271]
17 | > 128 | 64 (≈ 133 µM) | 64 (≈ 133 µM) | 128 (≈ 266 µM) | CNC(=O)CC(=O)N[C@H](C)[C@H]1C(=O)N2C(C(=O)O)=C(S[C@@H]3CN[C@H](C(=O)N(C)C)C3)[C@H](C)[C@H]12 [Example 272]
